Reference: ChEMBL document CHEMBL1140420, “Synthesis of tricyclic 1,3-oxazin-4-ones and kinetic analysis of cholesterol esterase and acetylcholinesterase inhibition” (J Med Chem, 2005)
Each block holds one compound with its values, some of them ahead of it.

Assays:
[1] = molecular target: T1, Bile salt-activated lipase (Bos taurus, UniProt P30122)
T1 sequence (P30122 whole entry): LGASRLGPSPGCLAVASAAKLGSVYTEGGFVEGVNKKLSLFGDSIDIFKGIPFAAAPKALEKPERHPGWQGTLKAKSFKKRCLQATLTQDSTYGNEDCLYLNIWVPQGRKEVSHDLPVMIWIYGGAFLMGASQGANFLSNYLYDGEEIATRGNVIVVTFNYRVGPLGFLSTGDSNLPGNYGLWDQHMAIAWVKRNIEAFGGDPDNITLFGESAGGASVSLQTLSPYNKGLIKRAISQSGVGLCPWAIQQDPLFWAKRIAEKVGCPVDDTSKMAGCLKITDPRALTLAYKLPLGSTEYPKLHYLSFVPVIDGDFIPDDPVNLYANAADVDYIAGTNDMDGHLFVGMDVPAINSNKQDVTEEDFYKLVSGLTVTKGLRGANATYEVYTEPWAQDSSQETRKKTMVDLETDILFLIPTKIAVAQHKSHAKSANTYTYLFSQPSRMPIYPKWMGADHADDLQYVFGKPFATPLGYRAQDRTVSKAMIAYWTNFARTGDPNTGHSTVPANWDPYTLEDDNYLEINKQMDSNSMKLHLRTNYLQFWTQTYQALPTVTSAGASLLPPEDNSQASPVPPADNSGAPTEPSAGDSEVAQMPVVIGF
Description: Inhibitory activity against bovine pancreatic CEase in presence of pNPB chromogenic substrate by spectrophotometry

Acetylcholinesterase = Acetylcholinesterase (Electrophorus electricus, UniProt O42275)
Chain of Acetylcholinesterase (O42275 whole entry): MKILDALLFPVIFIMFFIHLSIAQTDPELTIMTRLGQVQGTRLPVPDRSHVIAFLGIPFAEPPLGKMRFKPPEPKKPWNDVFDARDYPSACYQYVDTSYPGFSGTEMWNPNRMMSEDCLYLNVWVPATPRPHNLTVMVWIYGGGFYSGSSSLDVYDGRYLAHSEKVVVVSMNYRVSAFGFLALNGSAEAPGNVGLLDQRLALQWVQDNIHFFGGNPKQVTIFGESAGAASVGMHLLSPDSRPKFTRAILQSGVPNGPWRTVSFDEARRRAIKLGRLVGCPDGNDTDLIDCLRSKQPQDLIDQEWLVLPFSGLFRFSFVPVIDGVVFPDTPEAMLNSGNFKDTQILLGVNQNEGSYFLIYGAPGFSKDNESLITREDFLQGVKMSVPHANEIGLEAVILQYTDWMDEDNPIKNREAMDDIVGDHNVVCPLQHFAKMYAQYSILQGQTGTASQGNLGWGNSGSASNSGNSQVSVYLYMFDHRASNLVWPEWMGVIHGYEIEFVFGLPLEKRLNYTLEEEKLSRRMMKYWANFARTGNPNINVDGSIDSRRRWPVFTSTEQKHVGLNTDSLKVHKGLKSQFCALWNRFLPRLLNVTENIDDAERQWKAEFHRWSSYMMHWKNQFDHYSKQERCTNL
Description: Inhibitory activity AChE from Electrophorus electricus using ATCh substrate and DTNB by spectrophotometry

SMILES: O=c1oc(N2CCOCC2)nc2sc3c(c12)CCN(Cc1ccccc1)C3
Ki [1]: > 50 µM
IC50 (Acetylcholinesterase): 0.77 µM

SMILES: CCN1CCc2c(sc3nc(N(C)C)oc(=O)c23)C1
Ki [1]: > 50 µM
IC50 (Acetylcholinesterase): 10.5 µM

SMILES: CN(C)c1nc2sc3c(c2c(=O)o1)CCSC3
Ki [1]: 5.76 µM
IC50 (Acetylcholinesterase): > 50 µM

SMILES: CC(C)CN1CCc2c(sc3nc(N(C)C)oc(=O)c23)C1
Ki [1]: > 50 µM
IC50 (Acetylcholinesterase): 0.36 µM
Ki (Acetylcholinesterase): 0.66 µM

SMILES: CN(C)c1nc2sc3c(c2c(=O)o1)CCN(Cc1ccccc1)C3
Ki [1]: > 50 µM
IC50 (Acetylcholinesterase): 0.89 µM
Ki (Acetylcholinesterase): 1.7 µM

SMILES: O=c1oc(N2CCN(Cc3ccccc3)CC2)nc2sc3c(c12)CCN(Cc1ccccc1)C3
Ki [1]: > 50 µM
IC50 (Acetylcholinesterase): 1.32 µM

SMILES: CN1CCc2c(sc3nc(N(C)C)oc(=O)c23)C1
Ki [1]: > 50 µM
IC50 (Acetylcholinesterase): 38.9 µM

SMILES: Nc1nc2sc3c(c2c(=O)s1)CCN(Cc1ccccc1)C3
Ki [1]: > 50 µM
IC50 (Acetylcholinesterase): 1.2 µM

SMILES: CC(C)Nc1nc2sc3c(c2c(=O)o1)CCN(Cc1ccccc1)C3
Ki [1]: > 50 µM
IC50 (Acetylcholinesterase): 0.74 µM

SMILES: CN(C)c1nc2sc3c(c2c(=O)o1)CCN(C(=O)c1ccccc1)C3
Ki [1]: > 50 µM
IC50 (Acetylcholinesterase): 35.6 µM

Ki [1]: > 50 µM
SMILES: O=c1oc(NC2CCCCC2)nc2sc3c(c12)CCN(Cc1ccccc1)C3

SMILES: CC(C)Nc1nc2sc3c(c2c(=O)s1)CCN(Cc1ccccc1)C3
Ki [1]: > 50 µM
IC50 (Acetylcholinesterase): 0.58 µM

SMILES: CCN(CC)c1nc2sc3c(c2c(=O)o1)CCC3
Ki [1]: 0.58 µM
IC50 (Acetylcholinesterase): > 50 µM

SMILES: CCN(CC)c1nc2sc3c(c2c(=O)o1)C(C)CCC3 (stereo not drawn)
Ki [1]: 1.64 µM
IC50 (Acetylcholinesterase): > 50 µM

SMILES: CCN(CC)c1nc2scc(C)c2c(=O)o1
Ki [1]: 15 µM
IC50 (Acetylcholinesterase): > 50 µM

SMILES: CCN(CC)c1nc2sc3ccccc3c2c(=O)o1
Ki [1]: 7.5 µM
IC50 (Acetylcholinesterase): > 50 µM

SMILES: CCN(CC)c1nc2sc(C(N)=O)c(C)c2c(=O)o1
Ki [1]: > 50 µM
IC50 (Acetylcholinesterase): > 50 µM

SMILES: O=c1sc(NC2CCCCC2)nc2sc3c(c12)CCN(Cc1ccccc1)C3
Ki [1]: > 50 µM
IC50 (Acetylcholinesterase): 2.82 µM

SMILES: O=c1sc(Nc2ccccc2)nc2sc3c(c12)CCN(Cc1ccccc1)C3
Ki [1]: > 50 µM
IC50 (Acetylcholinesterase): 1.03 µM

SMILES: O=C(Nc1nc2sc3c(c2c(=O)o1)CCN(Cc1ccccc1)C3)c1ccccc1
Ki [1]: > 50 µM
IC50 (Acetylcholinesterase): 2.86 µM

SMILES: O=C(Nc1nc2sc3c(c2c(=O)s1)CCN(Cc1ccccc1)C3)c1ccccc1
Ki [1]: > 50 µM
IC50 (Acetylcholinesterase): 5.2 µM

SMILES: COc1ccc(CN(C)c2nc3sc4c(c3c(=O)o2)CCN(Cc2ccccc2)C4)cc1OC
Ki [1]: > 50 µM
IC50 (Acetylcholinesterase): 0.33 µM

SMILES: CN(C)c1nc2sc3c(c2c(=O)o1)CCOC3
Ki [1]: > 50 µM
IC50 (Acetylcholinesterase): > 50 µM

SMILES: CN(C)c1nc2sc3c(c2c(=O)o1)CCC3
Ki [1]: 0.63 µM
IC50 (Acetylcholinesterase): > 50 µM

SMILES: CCN(CC)c1nc2sc3c(c2c(=O)o1)CCCC3
Ki [1]: 1.86 µM
IC50 (Acetylcholinesterase): > 50 µM

SMILES: O=c1oc(N2CCOCC2)nc2sc3c(c12)CCCC3
Ki [1]: 5.7 µM
IC50 (Acetylcholinesterase): > 50 µM

SMILES: Nc1nc2sc3c(c2c(=O)o1)CCN(Cc1ccccc1)C3
Ki [1]: > 50 µM
IC50 (Acetylcholinesterase): 5.9 µM

SMILES: CCN(CC)c1nc2scc(C(C)C)c2c(=O)o1
Ki [1]: 6.4 µM
IC50 (Acetylcholinesterase): > 50 µM

SMILES: O=c1oc(Nc2ccccc2)nc2sc3c(c12)CCN(Cc1ccccc1)C3
Ki [1]: > 50 µM
IC50 (Acetylcholinesterase): 0.94 µM

SMILES: CCN(CC)c1nc2sc3c(c2c(=O)o1)CCCCC3
Ki [1]: 6 µM
IC50 (Acetylcholinesterase): > 50 µM

SMILES: CN(Cc1ccccc1)c1nc2sc3c(c2c(=O)o1)CCN(Cc1ccccc1)C3
Ki [1]: > 50 µM
IC50 (Acetylcholinesterase): 0.84 µM

SMILES: CCN(CC)c1nc2sc(C)c(C)c2c(=O)o1
Ki [1]: 4.3 µM
IC50 (Acetylcholinesterase): > 50 µM

SMILES: CC(C)Nc1nc2sc3c(c2c(=O)o1)CCCC3
Ki [1]: > 50 µM
IC50 (Acetylcholinesterase): > 50 µM

SMILES: CN(c1nc2sc3c(c2c(=O)o1)CCCC3)C1CCCCC1
Ki [1]: 18 µM
IC50 (Acetylcholinesterase): > 50 µM

SMILES: CCN(CC)c1nc2sc3c(c2c(=O)o1)CCN(Cc1ccccc1)C3
Ki [1]: > 50 µM
IC50 (Acetylcholinesterase): 2.08 µM

SMILES: CN(C)c1nc2sc3c(c2c(=O)o1)CCCC3
Ki [1]: 2.15 µM
IC50 (Acetylcholinesterase): > 50 µM
